# Test results published in US11180657B2, “Polysulfonated fluorescence dyes” (ATTO-TEC GmbH, priority 2017, dated 2021).
# Marks after values point to notes of the source that are not given here.
# Columns and labels:
# [1] = Absorption maximum of the dye; format: physicochemical
# Excerpt: (§1) Examples of the compounds according to the invention are listed in Tables 2-6, where the structures as well as the absorption and fluorescence maxima are indicated. The spectra of selected compounds are shown FIGS. 5-18.
# [2] = Fluorescence maximum of the dye; format: physicochemical
# Excerpt: as §1
SMILES,λabs ([1]; solvent water/acetonitrile 1:1),λfl ([2]; solvent PBS pH 7.4),λabs ([1]; solvent PBS pH 7.4),λabs ([1]; solvent ethanol) [nm],λfl ([2]; solvent ethanol) [nm]
O=C(O)c1ccccc1-c1c2cc/c(=N/CS(=O)(=O)O)c(S(=O)(=O)O)c-2oc2c(S(=O)(=O)O)c(NCS(=O)(=O)O)ccc12 [Compound 1],533^c nm,554^b nm,,,
CCN(Cc1ccccc1S(=O)(=O)O)c1ccc2c(-c3ccccc3C(=O)O)c3cc/c(=[N+](\CC)Cc4ccccc4S(=O)(=O)O)cc-3oc2c1 [Compound 2],554^c nm,584^b nm,,,
CN(CCCC(=O)ON1C(=O)CCC1=O)C(=O)c1ccccc1-c1c2cc(S(=O)(=O)O)/c(=N/Cc3ccc(S(=O)(=O)O)cc3S(=O)(=O)O)cc-2oc2cc(NCc3ccc(S(=O)(=O)O)cc3S(=O)(=O)O)c(S(=O)(=O)O)cc12 [Compound 7],534^c nm,559^b nm,,,
CN(CCCC(=O)O)C(=O)c1ccccc1-c1c2ccc(=[N+](Cc3ccc(S(=O)(=O)O)cc3S(=O)(=O)O)Cc3ccc(S(=O)(=O)O)cc3S(=O)(=O)O)cc-2oc2cc(N(Cc3ccc(S(=O)(=O)O)cc3S(=O)(=O)O)Cc3ccc(S(=O)(=O)O)cc3S(=O)(=O)O)ccc12 [Compound 9],550^c nm,572^b nm,,,
O=C(O)c1ccccc1-c1c2cc/c(=N/CCc3ccc(S(=O)(=O)O)cc3)cc-2oc2cc(NCCc3ccc(S(=O)(=O)O)cc3)ccc12 [Compound 18],530^c nm,551^b nm,,,
CN(CCCC(=O)O)C(=O)c1ccccc1-c1c2cc/c(=N/CCc3ccc(S(=O)(=O)O)cc3)cc-2oc2cc(NCCc3ccc(S(=O)(=O)O)cc3)ccc12 [Compound 21],538^c nm,559^b nm,,,
CN(CCCC(=O)O)C(=O)c1ccccc1-c1c2cc(S(=O)(=O)O)/c(=N/CCc3ccc(S(=O)(=O)O)cc3)cc-2oc2cc(NCCc3ccc(S(=O)(=O)O)cc3)ccc12 [Compound 22],536^c nm,558^b nm,,,
O=C(O)CN(CCS(=O)(=O)O)C(=O)c1ccccc1-c1c2cc/c(=N/Cc3ccc(S(=O)(=O)O)cc3S(=O)(=O)O)c(S(=O)(=O)O)c-2oc2c(S(=O)(=O)O)c(NCc3ccc(S(=O)(=O)O)cc3S(=O)(=O)O)ccc12 [Compound 30],536^c nm,,,,
CN(CCCC(=O)O)C(=O)c1c(-c2c3cc/c(=N/Cc4ccc(S(=O)(=O)O)cc4S(=O)(=O)O)c(S(=O)(=O)O)c-3oc3c(S(=O)(=O)O)c(NCc4ccc(S(=O)(=O)O)cc4S(=O)(=O)O)ccc23)cc(S(=O)(=O)O)cc1S(=O)(=O)O [Compound 32],530^c nm,,,,
CN(CCCC(=O)O)C(=O)c1cc2ccccc2cc1-c1c2cc/c(=N/Cc3ccc(S(=O)(=O)O)cc3S(=O)(=O)O)c(S(=O)(=O)O)c-2oc2c(S(=O)(=O)O)c(NCc3ccc(S(=O)(=O)O)cc3S(=O)(=O)O)ccc12.CS(=O)(=O)O.CS(=O)(=O)O [Compound 33],539^c nm,,,,
CN(CCCC(=O)O)C(=O)c1ccccc1-c1c2cc/c(=N/Cc3cc(S(=O)(=O)O)c4cc(S(=O)(=O)O)cc(S(=O)(=O)O)c4c3)c(S(=O)(=O)O)c-2oc2c(S(=O)(=O)O)c(NCc3cc(S(=O)(=O)O)c4cc(S(=O)(=O)O)cc(S(=O)(=O)O)c4c3)ccc12 [Compound 34],,,530^b nm,,
CN(CCCC(=O)O)C(=O)c1ccccc1C1=c2cc3c(cc2C(C)(C)c2c1cc1c4c2CCCN4CCC1)=[N+](Cc1ccc(S(=O)(=O)O)cc1S(=O)(=O)O)CCC3 [Compound 41],,659 nm,640 nm,642,663
CC1(C)c2cc3c(cc2C(c2c(Cl)cccc2Cl)=c2cc4c(cc21)=[N+](Cc1ccc(S(=O)(=O)O)cc1S(=O)(=O)O)C(C)(C)C=C4CS(=O)(=O)O)CCCN3CCCC(=O)O [Compound 52],,698^b nm,673^b nm,,
CC1(C)c2cc3c(cc2C(c2c(Cl)cccc2Cl)=c2cc4c(cc21)=[N+](Cc1ccc(S(=O)(=O)O)cc1S(=O)(=O)O)C(C)(C)CC4CS(=O)(=O)O)CCCN3CCCC(=O)O (stereo not shown) [Compound 53],,677^b nm,654^b nm,,
CN(Cc1ccc(S(=O)(=O)O)cc1S(=O)(=O)O)c1ccc2c(c1)[Si](C)(C)C1=C/C(=[N+](/C)Cc3ccc(S(=O)(=O)O)cc3S(=O)(=O)O)C=CC1=C2c1c(F)c(F)c(SCC(=O)O)c(F)c1F [Compound 54],,709^b nm,685^b nm,,

# Now from value to molecule:
λabs ([1]; solvent water/acetonitrile 1:1),λfl ([2]; solvent PBS pH 7.4),λabs ([1]; solvent PBS pH 7.4),λabs ([1]; solvent ethanol) [nm],λfl ([2]; solvent ethanol) [nm],SMILES
550^c nm,583^b nm,,,,CCN(Cc1ccc(S(=O)(=O)O)cc1S(=O)(=O)O)c1ccc2c(-c3ccccc3C(=O)O)c3cc/c(=[N+](\CC)Cc4ccc(S(=O)(=O)O)cc4S(=O)(=O)O)cc-3oc2c1 [Compound 3]
536^c nm,559^b nm,,,,O=C(O)c1ccccc1-c1c2cc/c(=N/Cc3ccc(S(=O)(=O)O)cc3S(=O)(=O)O)cc-2oc2cc(NCc3ccc(S(=O)(=O)O)cc3S(=O)(=O)O)ccc12 [Compound 4]
560^c nm,584^b nm,,,,CCN(Cc1ccc(S(=O)(=O)O)cc1S(=O)(=O)O)c1ccc2c(-c3ccccc3C(=O)N(C)CCCC(=O)O)c3cc/c(=[N+](\CC)Cc4ccc(S(=O)(=O)O)cc4S(=O)(=O)O)cc-3oc2c1 [Compound 5]
534^c nm,555^b nm,,,,CN(CCCC(=O)O)C(=O)c1ccccc1-c1c2cc/c(=N/Cc3ccc(S(=O)(=O)O)cc3S(=O)(=O)O)cc-2oc2cc(NCc3ccc(S(=O)(=O)O)cc3S(=O)(=O)O)ccc12 [Compound 13]
532^c nm,559^b nm,,,,O=C(O)c1ccccc1-c1c2cc/c(=N/CCc3ccc(S(=O)(=O)O)cc3S(=O)(=O)O)cc-2oc2cc(NCCc3ccc(S(=O)(=O)O)cc3S(=O)(=O)O)ccc12 [Compound 23]
539^c nm,561^b nm,,,,CN(CCCC(=O)O)C(=O)c1ccccc1-c1c2cc/c(=N/CCc3ccc(S(=O)(=O)O)cc3S(=O)(=O)O)cc-2oc2cc(NCCc3ccc(S(=O)(=O)O)cc3S(=O)(=O)O)ccc12 [Compound 24]
567^c nm,,,,,CN(CCCC(=O)O)C(=O)c1ccccc1C1=c2cc3c(cc2Oc2cc4c(cc21)CCCN4Cc1ccc(S(=O)(=O)O)cc1S(=O)(=O)O)=[N+](Cc1ccc(S(=O)(=O)O)cc1S(=O)(=O)O)CCC3 [Compound 28]
531^c nm,,,,,CN(CCCC(=O)O)C(=O)c1ccccc1-c1c2cc/c(=N/Cc3ccc(S(=O)(=O)O)cc3S(=O)(=O)O)c(S(=O)(=O)O)c-2oc2c(S(=O)(=O)O)c(NCc3ccc(S(=O)(=O)O)cc3S(=O)(=O)O)ccc12 [Compound 29]
532^c nm,,,,,CN(CCCC(=O)O)C(=O)c1ccccc1-c1c2cc/c(=N/Cc3ccc(S(=O)(=O)O)cc3S(=O)(=O)O)c(S(=O)(=O)O)c-2oc2c(S(=O)(=O)O)c(NCc3ccc(S(=O)(=O)O)cc3S(=O)(=O)O)ccc12.CS(=O)(=O)O [Compound 31]
,677^b nm,656^b nm,,,CC1(C)c2c(cc3c4c2CCCN4CCC3)C(c2c(F)c(F)c(SCC(=O)O)c(F)c2F)=c2cc3c(cc21)=[N+](Cc1ccc(S(=O)(=O)O)cc1S(=O)(=O)O)CCC3 [Compound 36]
,661^b nm,642^b nm,,,CN(C)c1ccc2c(c1)C(C)(C)C1=C/C(=[N+](/C)Cc3ccc(S(=O)(=O)O)cc3S(=O)(=O)O)C=CC1=C2c1c(F)c(F)c(F)c(F)c1F [Compound 37]
,667^b nm,646^b nm,,,CN(C)c1ccc2c(c1)C(C)(C)c1cc3c(cc1=C2c1c(F)c(F)c(SCC(=O)O)c(F)c1F)CCC[N+]=3Cc1ccc(S(=O)(=O)O)cc1S(=O)(=O)O [Compound 38]
,693^b nm,673^b nm,,,CN(C)c1ccc2c(c1)C(C)(C)c1cc3c(cc1=C2c1c(F)c(F)c(SCC(=O)O)c(F)c1F)C(CS(=O)(=O)O)CC(C)(C)[N+]=3Cc1ccc(S(=O)(=O)O)cc1S(=O)(=O)O (stereo not shown) [Compound 39]
,720^b nm,699^b nm,,,CC1(C)c2cc3c(cc2C(c2c(F)c(F)c(SCC(=O)O)c(F)c2F)=c2cc4c(cc21)=[N+](Cc1ccc(S(=O)(=O)O)cc1S(=O)(=O)O)C(C)(C)CC4CS(=O)(=O)O)C(CS(=O)(=O)O)=CC(C)(C)N3Cc1ccc(S(=O)(=O)O)cc1S(=O)(=O)O (stereo not shown) [Compound 40]
,701^b nm,682^b nm,,,CC[N+]1=c2cc3c(cc2C(CS(=O)(=O)O)=CC1(C)C)=C(c1c(F)c(F)c(SCCS(=O)(=O)O)c(F)c1F)c1cc2c(cc1C3(C)C)N(Cc1ccc(S(=O)(=O)O)cc1S(=O)(=O)O)CCC2 [Compound 42]
,704^b nm,684^b nm,,,CC[N+]1=c2cc3c(cc2C(CS(=O)(=O)O)=CC1(C)C)=C(c1c(F)c(F)c(SCC(=O)O)c(F)c1F)c1cc2c(cc1C3(C)C)N(Cc1ccc(S(=O)(=O)O)cc1S(=O)(=O)O)CCC2 [Compound 43]
,707^b nm,687^b nm,,,CC1(C)C=C(CS(=O)(=O)O)c2cc3c(cc2N1)C(C)(C)c1cc2c(cc1=C3c1c(F)c(F)c(SCC(=O)O)c(F)c1F)C(CS(=O)(=O)O)=CC(C)(C)[N+]=2Cc1ccc(S(=O)(=O)O)cc1 [Compound 44]
,719^b nm,698^b nm,,,CC1(C)c2cc3c(cc2C(c2c(F)c(F)c(SCCS(=O)(=O)O)c(F)c2F)=c2cc4c(cc21)=[N+](CCc1ccc(S(=O)(=O)O)cc1)C(C)(C)C=C4CS(=O)(=O)O)C(CS(=O)(=O)O)=CC(C)(C)N3CCCC(=O)O [Compound 45]
,666^b nm,646^b nm,,,CN(Cc1ccc(S(=O)(=O)O)cc1S(=O)(=O)O)c1ccc2c(c1)C(C)(C)C1=C/C(=[N+](/C)Cc3ccc(S(=O)(=O)O)cc3S(=O)(=O)O)C=CC1=C2c1c(F)c(F)c(F)c(F)c1F [Compound 46]
,666^b nm,645^b nm,,,CN(Cc1ccc(S(=O)(=O)O)cc1S(=O)(=O)O)c1ccc2c(c1)C(C)(C)C1=C/C(=[N+](/C)Cc3ccc(S(=O)(=O)O)cc3S(=O)(=O)O)C=CC1=C2c1c(F)c(F)c(SCC(=O)O)c(F)c1F [Compound 47]
,705^b nm,682^b nm,,,CC1(C)c2cc3c(cc2C(c2c(F)c(F)c(SCCS(=O)(=O)O)c(F)c2F)=c2cc4c(cc21)=[N+](Cc1ccc(S(=O)(=O)O)cc1S(=O)(=O)O)C(C)(C)C=C4CS(=O)(=O)O)CCCN3CCCC(=O)O [Compound 48]
